{"source": "patent US7015251B1", "about": "(priority 1999, dated 2006)", "key": {"[1]": {"system": "Jurkat cells", "assay": "Jurkat cell proliferation assay (3H-thymidine uptake)", "assay_type": "cell-based, human", "conditions": "for [3H]thymidine uptake counts ± SD: Ceramide 25 μg/ml", "experimental": "Cell Proliferation Assays. […] DNA synthesis was assessed by the addition of ^3H-thymidine (1 μCi/well; specific activity—6.7 Ci/mmol; ICN Pharmaceuticals, Costa Mesa, Calif.) uptake 24 hours before the end of the 72 hour growth period at a final concentration of 1 μCi/well."}, "[2]": {"system": "Jurkat cells", "assay": "Jurkat cell cycle analysis (propidium iodide, FACScan)", "assay_type": "cell-based, human", "conditions": "ceramide treatment, 10% fetal bovine serum, 24 hours", "excerpt": "Cell Cycle Analysis. […] Pie graphs (FIGS. 3A–F) were generated and normalized to a control value of 100%."}, "[3]": {"system": "Jurkat cells", "assay": "Jurkat histologic evaluation (Wright's stain)", "assay_type": "cell-based, human", "conditions": "ceramide 25 μg/ml, 10% serum, 48 hours", "experimental": "Histologic Evaluation. […] Wright's stains of all slides were performed using an automated Hemastainer (Geometric Data, Wayne, Pa.). Slides were analyzed microscopically, photographed (Olympus BH 2, Tokyo, Japan) at 100, 200, and 400 power, and evaluated for morphological changes."}, "[4]": {"system": "Jurkat cells", "assay": "Jurkat TUNEL assay for apoptosis", "assay_type": "cell-based, human", "conditions": "48 hours", "experimental": "Terminal deoxynucleotide transferase (TdT) mediated deoxyuridine triphosphate (dUTP) nick-end labeling (TUNEL) assay. […] At 24 and 48 hours, DNA strand breaks were labeled with TUNEL assay (In Situ Cell Death Detection Kit, Fluorescein; Boehringer Mannheim, Indianapolis, Ind.), and cellular apoptosis was measured by flow cytometry."}, "[5]": {"system": "Tu138 cells", "assay": "Tu138 MTT dye assay (cytotoxicity, isobologram)", "conditions": "for cytotoxicity: 3 days of culture; for cell cytotoxicity (time kinetics): ceramide 25 μg/ml alone", "experimental": "Tu138, an adherent squamous carcinoma cell line of the head and neck was established at U T M D Anderson Cancer Center, Houston, Tex. (20, 21) and was generously provided by Dr. Gary Clayman's laboratory. Tu138 cells were maintained routinely in T-75 culture flasks (Falcon, Inc., NJ) at a plating cell density of 0.1×10^6 per 75 sq. cm. surface area in complete D-MEM/F-12 culture medium (10 ml) containing 10% fetal bovine serum (FBS, Atlanta Biologicals, Ga.), 2 mM glutamine (Gibco, NY), 50 units/mL penicillin, […] streptomycin (Gibco, NY) and 20 mM Hepes (Sigma, MO) in a 5% CO2 atmosphere at 37° C. Tu138 cells were replenished with fresh complete culture medium twice weekly until confluence.\nAt the indicated times (24 to 72 hours), cells were subjected to (a) tetrazolium-based dye assay for cell survival measurements, (b) flow cytometry analysis for cell cycle progression and (c) measurements of apoptosis by TUNEL assay.\n(22). At the end of an incubation period of 4 hours, culture plates were centrifuged at 300 g for 2 minutes."}, "[6]": {"system": "Tu138 cells", "assay": "Tu138 cell cycle measurements (flow cytometry)", "assay_type": "cell-based, human", "conditions": "ceramide 25 μg/ml alone, 24 or 48 hours, n=4", "experimental": "(§1) At the end of either 24 or 48 hours, cells were trypsinized and washed with the culture medium. For cell cycle measurements, cells were mixed with 0.5 ml of 0.1% propidium iodide solution (New Concepts Scientific Ltd. ON) containing 0.1% sodium citrate and 0.1% NP-40. RNase (1 μg) was added to each sample and cells were incubated at 4° C. for 30 minutes. At least 1×10^4 cells were acquired on a precalibrated FACScan (Beckton Dickinson, Calif.) flow cytometer. For precalibration “DNA QC” (Becton Dickinson, Calif.) kit was utilized. The acquired cells were then subjected to cell cycle analysis by the use of “Modfit LT” software (Beckton Dickinson, Calif.). For measurements of apoptosis, In Situ Cell Death Detection Kit (Boehringer Manheim, Ind.) followed by flow cytometry analysis was utilized."}, "[7]": {"system": "Tu138 cells", "assay": "Tu138 TUNEL assay for apoptosis", "assay_type": "cell-based, human", "conditions": "ceramide 25 μg/ml alone", "experimental": "as §1"}, "[8]": {"system": "Tu138 cells", "excerpt": "The vehicle control consisted of cremophore only at the concentration utilized in the combination treatment.\nIn a separate experiment nude mice were implanted with 1−2×10^6 Tu138 cells. […] The vehicle control consisted of cremophore only at the concentration utilized in the combination treatment."}, "[9]": {"system": "HT29", "assay": "MTT dye assay at 72 hrs, HT29", "assay_type": "cell-based, human", "conditions": "CERAMIDE (25 μg/nl) alone; HT29"}, "[10]": {"system": "Jurkat", "assay": "MTT dye assay at 72 hrs, Jurkat", "assay_type": "cell-based, human", "conditions": "CERAMIDE (25 μg/nl) alone"}, "[11]": {"system": "LnCap", "assay": "MTT dye assay at 72 hrs, LnCap", "assay_type": "cell-based, human", "conditions": "CERAMIDE (25 μg/nl) alone; LnCap"}, "[12]": {"system": "PC-3", "assay": "MTT dye assay at 72 hrs, PC-3", "assay_type": "cell-based, human", "conditions": "CERAMIDE (25 μg/nl) alone"}, "[13]": {"system": "RWP-2", "assay": "MTT dye assay at 72 hrs, RWP-2", "assay_type": "cell-based, human", "conditions": "CERAMIDE (25 μg/nl) alone; RWP-2"}, "[14]": {"system": "TU138", "assay": "MTT dye assay at 72 hrs, TU138", "assay_type": "cell-based, human", "conditions": "CERAMIDE (25 μg/nl) alone; TU138"}, "[15]": {"system": "tumor cell lines", "assay": "MTT dye assay at 72 hrs, tumor cell lines tested (ID50)", "assay_type": "cell-based, human", "conditions": "ceramide, approximately"}, "[16]": {"system": "Tu138 tumor", "assay": "Tu138 tumor in nude mice, intraperitoneal treatment", "conditions": "paclitaxel 120 μg and/or ceramide 500 μg, within 4 weeks of administration"}, "[17]": {"system": "Tu138 cell-tumor", "assay": "Tu138 tumor in nude mice, subcutaneous treatment near tumor site", "conditions": "ceramide alone 500 μg/0.2 mL s.c. thrice weekly", "procedure": "To corroborate in vitro findings Tu138 cells were planted subcutaneously on nude mice. […] Tumor size was measured once a week. All groups of mice were sacrificed on day 45 and excised tumors were weighed."}}}
{"compound": "CCCCCCCCCCCCC/C=C/[C@@H](O)[C@H](CO)NC(=O)CCCCC", "note": "[Ceramide, N-hexanoyl-D-sphingosine]", "values": [{"measurement": "[3H]thymidine uptake counts ± SD", "setting": "[1]; Experiment 1", "value": "378245 ± 28689", "unit": "cpm"}, {"measurement": "[3H]thymidine uptake counts ± SD", "setting": "[1]; Experiment 2", "value": "415740 ± 6168", "unit": "cpm"}, {"measurement": "[3H]thymidine uptake counts ± SD", "setting": "[1]; Experiment 3", "value": "301993 ± 67599", "unit": "cpm"}, {"measurement": "[3H]thymidine uptake counts ± SD", "setting": "[1]; Experiment 4", "value": "259230 ± 54914", "unit": "cpm"}, {"measurement": "[3H]thymidine uptake counts ± SD", "setting": "[1]; Experiment 5", "value": "189052 ± 3534", "unit": "cpm"}, {"measurement": "growth inhibition", "setting": "[1]; ceramide added alone, all test concentrations (0 to 50 μg/ml), 10% fetal bovine serum", "value": "≤ 6", "unit": "%"}, {"measurement": "ceramide-mediated growth inhibition", "setting": "[1]; low serum (1%)", "value": "> 99", "unit": "%"}, {"measurement": "cell cycle pattern", "setting": "[2]", "value": "did not differ from the non-ceramide-exposed control"}, {"measurement": "morphological changes (Wright's stain)", "setting": "[3]", "value": "morphologically indistinguishable from control cells"}, {"measurement": "apoptosis (TUNEL)", "setting": "[4]; 12.5 μg/ml of ceramide", "value": 0.41, "unit": "%"}, {"measurement": "apoptosis (TUNEL)", "setting": "[4]; 25 μg/ml of ceramide", "value": 0.33, "unit": "%"}, {"measurement": "cytotoxicity", "setting": "[5]; ceramide 12.5 μg/ml", "value": 19, "unit": "%"}, {"measurement": "cell cytotoxicity (time kinetics)", "setting": "[5]; 24 hours", "value": 32.7, "unit": "%"}, {"measurement": "cell cytotoxicity (time kinetics)", "setting": "[5]; 72 hours", "value": 54.5, "unit": "%"}, {"measurement": "cytotoxicity", "setting": "[5]; ceramide 25 μg/ml", "value": 46, "unit": "%"}, {"measurement": "ED50 (cytotoxicity, MTT)", "setting": "[5]; ceramide alone, n=6, 3 days", "value": "22 ± 5", "unit": "µg/mL"}, {"measurement": "effect on cell cycle progression", "setting": "[6]", "value": "did not significantly affect either G0–G1 or G2-M phase"}, {"measurement": "effect on cell cycle progression", "setting": "[6]; listed as ceramide", "value": "no significant effect"}, {"measurement": "apoptosis (TUNEL)", "setting": "[7]; 24 hours", "value": 9.7, "unit": "%"}, {"measurement": "apoptosis (TUNEL)", "setting": "[7]; 48 hours", "value": 13.6, "unit": "%"}, {"measurement": "toxicity", "setting": "[8]; ceramide delivered in cremophore, nude mice", "value": "no toxicity"}, {"measurement": "Tumor Size (mm^2) at Week 5", "setting": "[8]; paclitaxel 120 μg and/or ceramide 500 μg in cremophore, s.c. near tumor thrice weekly from day 4 for 5 weeks", "value": "109.5 ± 14.1", "unit": "mm^2"}, {"measurement": "reduction in tumor growth / tumor size vs vehicle control", "setting": "[8]; paclitaxel 120 μg and/or ceramide 500 μg in cremophore, s.c., week 5 (Table 3)", "value": 44.7, "unit": "%"}, {"measurement": "% Growth Inhibition", "setting": "[9]", "value": 61, "unit": "%"}, {"measurement": "% Growth Inhibition", "setting": "[10]", "value": 8, "unit": "%"}, {"measurement": "% Growth Inhibition", "setting": "[11]", "value": 25, "unit": "%"}, {"measurement": "% Growth Inhibition", "setting": "[12]", "value": 8, "unit": "%"}, {"measurement": "% Growth Inhibition", "setting": "[13]", "value": 6, "unit": "%"}, {"measurement": "% Growth Inhibition", "setting": "[14]", "value": 28, "unit": "%"}, {"measurement": "calculated ID50 (cytotoxicity)", "setting": "[15]", "value": "30.0 to 40.0", "unit": "µg/mL"}, {"measurement": "tumor size / tumor burden reduction in comparison to control (vehicle)", "setting": "[16]", "value": "no significant effect"}, {"measurement": "tumor weight", "setting": "[17]; excised day 45", "value": "substantial reduction in tumor weight"}, {"measurement": "tumor size", "setting": "[17]; week 5", "value": "slight decrease in tumor size"}]}
